In ChEMBL document CHEMBL5137020, “Electrostatic Complementarity in Structure-Based Drug Design” (J Med Chem, 2022):
pIC50: −log10 of the molar value.

Legend:
Homo sapiens [1] = species: Homo sapiens; test: Inhibition of cIAP BIR3 domain (unknown origin) at 495 uM relative to control
Cathepsin S = Cathepsin S (Homo sapiens, UniProt P25774); test: Inhibition of Cathepsin S (unknown origin)
Procathepsin L = Procathepsin L (Homo sapiens, UniProt P07711); test: Inhibition of human Cathepsin L
Cathepsin K = molecular target: T1, Cathepsin K (Homo sapiens, UniProt P43235); test: Inhibition of Cathepsin K (unknown origin)
T1 sequence (P43235 whole entry): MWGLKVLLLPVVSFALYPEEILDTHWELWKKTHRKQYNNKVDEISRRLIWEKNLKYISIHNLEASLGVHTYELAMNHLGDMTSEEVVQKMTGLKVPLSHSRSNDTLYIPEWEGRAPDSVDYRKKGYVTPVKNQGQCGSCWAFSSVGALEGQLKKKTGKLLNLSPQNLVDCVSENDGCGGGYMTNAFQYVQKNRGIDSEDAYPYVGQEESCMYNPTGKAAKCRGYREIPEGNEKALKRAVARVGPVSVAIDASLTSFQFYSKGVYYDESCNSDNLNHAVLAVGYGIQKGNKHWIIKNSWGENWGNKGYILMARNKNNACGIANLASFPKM

Homo sapiens [2] = species: Homo sapiens; test: Inhibition of cIAP BIR3 domain (unknown origin) at 1000 uM relative to control

Chain of Cathepsin S (P25774 whole entry): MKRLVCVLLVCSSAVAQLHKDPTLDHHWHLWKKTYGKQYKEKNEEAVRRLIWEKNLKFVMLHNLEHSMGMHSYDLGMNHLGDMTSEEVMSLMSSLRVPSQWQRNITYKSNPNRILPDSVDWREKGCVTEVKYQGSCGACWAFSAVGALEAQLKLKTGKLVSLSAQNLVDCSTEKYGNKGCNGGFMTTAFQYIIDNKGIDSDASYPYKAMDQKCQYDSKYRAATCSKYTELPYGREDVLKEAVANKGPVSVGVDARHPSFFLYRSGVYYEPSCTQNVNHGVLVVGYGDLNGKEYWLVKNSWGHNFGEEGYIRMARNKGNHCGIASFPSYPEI
Chain of Procathepsin L (P07711 whole entry): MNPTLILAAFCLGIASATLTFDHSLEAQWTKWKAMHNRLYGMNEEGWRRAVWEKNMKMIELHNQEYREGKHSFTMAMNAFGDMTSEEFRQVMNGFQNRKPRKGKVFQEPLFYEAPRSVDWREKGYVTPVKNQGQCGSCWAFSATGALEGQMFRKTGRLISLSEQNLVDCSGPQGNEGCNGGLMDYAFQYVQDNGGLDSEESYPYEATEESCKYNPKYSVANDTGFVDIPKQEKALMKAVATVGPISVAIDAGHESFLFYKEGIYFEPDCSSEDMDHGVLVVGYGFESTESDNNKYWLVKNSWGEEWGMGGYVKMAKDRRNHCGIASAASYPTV

Row | Structure (SMILES) | inhibition (Homo sapiens [1]) | pIC50 (Cathepsin S) | pIC50 (Procathepsin L) | pIC50 (Cathepsin K) | inhibition (Homo sapiens [2])
1 | C[C@@H]1CN(CC(=O)N2CCc3ccccc32)CCN1 | 42% |  |  |  | 
2 | N#CC1(NC(=O)[C@@H]2C[C@@H](S(=O)(=O)c3ccccc3Cl)CN2C(=O)C2(c3ncc(Br)cc3F)CNC2)CC1 |  | 9.00 | 8.30 | 5.70 | 
3 | C[C@@H]1CN(CC(=O)N2CCc3ccc(N)cc32)CCN1 |  |  |  |  | 8%

Other lines, results leading:

Row | inhibition (Homo sapiens [1]) | pIC50 (Cathepsin S) | pIC50 (Procathepsin L) | pIC50 (Cathepsin K) | inhibition (Homo sapiens [2]) | Structure (SMILES)
4 |  | 8.85 | 7.44 | 5.19 |  | COc1ccc(S(=O)(=O)[C@@H]2C[C@@H](C(=O)NC3(C#N)CC3)N(C(=O)C3(c4ccc(Cl)cn4)CNC3)C2)c(Cl)c1
5 |  |  |  | 4.96 |  | COc1ccc(S(=O)(=O)[C@@H]2C[C@@H](C(=O)NC3(C#N)CC3)N(C(=O)C3(c4ccc(Cl)cn4)CC3)C2)c(Cl)c1
